Test system: skin
Conditions: topical application on the skin; images at 0.5, 2, 5, 10 minutes following application; listed as methyl nicotineate amide
Source text: Another way of administering the agent is by topical application on the skin. […] This agent is frequently used in skin testing for assessing the sensitivity of the skin.
In this example a modern digital camera technology is utilized, exemplified by Canon IXUS V3, Canon Svenska AB, Solna, Sweden. […] In this approach a flash of white light—or alternatively continuous light—(A, FIG. 4) illuminates the skin (B, FIG. 4) under study after having been linearly polarized by a polarizer (C, FIG. 4) positioned in front of the flash lamp—or a lamp delivering continuous light—(D, FIG. 4). In the skin surface (E, FIG. 4), a fraction of the polarized light is directly reflected towards the camera aperture with essentially no change in polarization. […]
At least two of the normalized data matrixes representing the different colors are then further processed to form an output data matrix (L, FIG. 4), where each value corresponds to the amount of vasodilatation in the actual source point in tissue. In this example, the algorithm generates an output data matrix of which each element is calculated by subtracting the green value from the red value and divides the difference by the sum of the red and the green value of each element of the normalized original data matrixes.

Substance: methyl nicotinate amide
- local vasodilatation in skin: Vasodilatation

Reference: patent publication US20070146686A1, “Non-invasive method to monitor microcirculation” (priority 2004, published 2007)
